Source: patent publication US11773076B2, “Crystalline forms of a somatostatin modulator” (Crinetics Pharmaceuticals, Inc., priority 2021, dated 2023)
“Also recorded” adds a separate entry of the source.

Experiments:
[1] = Thermodynamic stability: one-week slurry stability of crystalline Pattern A (XRPD); assay type: physicochemical
Procedure: One-week slurry stability studies were performed on crystalline Pattern A in five solvents and solvent systems at room temperature (20-24° C.) and at 10° C. About 25 mg of Compound 1 was weighed into 2 mL vials and the solvent was added to each vial at room temperature with stirring. The solvents and solvent systems used in the experiments were: IPA:water (1:1 vol), THF:heptane (1:2 vol), ACN:heptane (1:2 vol), MIBK:heptane (1:2 vol), and IPAc.
For the IPA:water (1:1 vol) samples, 10 vol. of IPA:water (1:1 vol) was added, whereas 7 vol. were initially added for the other solvent systems. One set of vials was left to stir at room temperature and the other set was transferred to a cold stir plate at 10° C. After 5 days, samples that remained in solutions were seeded with Pattern A (0.5-1 mg) and left to stir for one week.

[2] = Dynamic Vapor Sorption (DVS); assay type: physicochemical
Procedure: Dynamic Vapor Sorption (DVS) was performed using a DVS Intrinsic 1. The sample (10-15 mg) was loaded into a sample pan, suspended from a microbalance and exposed to a humidified stream of nitrogen gas. The sample was held for a minimum of 5 min at each level and only progressed to the next humidity level if there was <0.002% change in weight between measurements (interval: 60 seconds) or 240 min had elapsed. The following program was used: • (1) Equilibration at 50% RH • (2) 50% to 2% (50%, 40%, 30%, 20%, 10% and 2%) • (3) 2% to 95% (2%, 10%, 20%, 30%, 40%, 50%, 60%, 70%, 80%, 90%, 95%) • (4) 95% to 2% (95%, 80%, 70%, 60%, 50%, 40%, 30%, 20%, 10%, 2%) • (5) 2% to 50% (2%, 10%, 20%, 30%, 40%, 50%)

[3] = Thermal stability of crystalline Pattern A (DSC cycling, then XRPD); assay type: physicochemical
Procedure: Two samples of Crystalline Pattern A were prepared and cycled in the DSC and then analyzed by XRPD.
The first sample of Pattern A (9.4 mg) was heated from 30° C. to 150° C. and then cooled back to 30° C.
The second sample of Pattern A (14.4 mg) was heated from 30° C. to 118° C. and then cooled back to 30° C. The sample recovered after the DSC experiment appeared as a light-amber pellet that was easily pressed into a powder on the XRPD plate.

[4] = Dry and solvent drop milling, XRPD after milling; assay type: physicochemical
Procedure: Dry and solvent drop milling was done using a small Wig-L-Bug ball mill with ¼″ stainless steel ball as milling media. About 25 mg of crystalline Pattern A of Compound 1 was weighed into a milling capsule and one volume of solvent (solvent drop) was added. The milling was carried out at 3,800 rpm in three steps of 30 s each. The solids were recovered after milling and analyzed by XRPD.

[5] = Stability of solid state forms on humidity exposure (static storage, XRPD re-analysis); assay type: physicochemical; settings: 40° C./75% RH for 7 days
Procedure: Samples were assessed for stability under static storage conditions of 40° C./75% RH for 7 days. The samples were then re-analyzed by XRPD.

SSTR2 = SSTR2 (Homo sapiens, UniProt P30874); experiment: Selectivity for SSTR5 over SSTR2; assay type: cell-based
SSTR5 = SSTR5 (Homo sapiens, UniProt P35346); experiment: SSTR5 agonist potency; assay type: cell-based
[6] = Stability of crystalline patterns on drying (XRPD); assay type: physicochemical; settings: for XRPD after drying on the benchtop: 2 days
Procedure: Samples of amorphous Compound 1 (either 30 mg/mL or 60 mg/mL) were dissolved in DCM and were allowed to evaporate either at room temperature or 45° C. After stirring for about 40 min, the resulting slurries were filtered and analyzed by XRPD. Pattern B was obtained for the wet cakes of recovered solids. Pattern B changed to C after drying under static vacuum at 50° C. overnight.
In a separate experiment, about 71 mg of amorphous Compound 1 was weighed into a 4 mL vial and 10 vol. (710 μL) of DCM was added at room temperature. After stirring for 5 min, a thin slurry formed. XRPD analysis of a sample taken from the slurry after 1 h confirmed Pattern B. The vial was then transferred to a fridge at 5° C. for ˜3 h and then to a freezer at −20° C. overnight. Small amount of solid settled to the bottom of the vial after cooling at −20° C., the yield was very low, about 6% w/w. XRPD confirmed Pattern B. Pattern B was left to dry on the benchtop at room temperature for 2 days. XRPD analysis on the sample after 2 days confirmed that Pattern B was stable. Thermal analysis on a small sample (0.7 mg) of Pattern B was performed by DSC.
A sample of 48.9 mg of amorphous Compound 1 and 3 vol. (˜150 μL) of MIBK:heptane was prepared at 45° C. A small amount of gummy solid formed after addition of the solvent system. The vial was vortexed and sonicated few times to break the gum and a thin slurry was obtained after 5 min of stirring. The sample was left to stir at 45° C. for about 5 h and then transferred to a stir plate at room temperature. After stirring overnight at room temperature, the sample was filtered and the solid was collected for XRPD analysis. The yield was low, ˜7% w/w.
Thermal analysis on a small sample of Pattern D was performed by DSC.

Sequence of SSTR2 (P30874 whole entry): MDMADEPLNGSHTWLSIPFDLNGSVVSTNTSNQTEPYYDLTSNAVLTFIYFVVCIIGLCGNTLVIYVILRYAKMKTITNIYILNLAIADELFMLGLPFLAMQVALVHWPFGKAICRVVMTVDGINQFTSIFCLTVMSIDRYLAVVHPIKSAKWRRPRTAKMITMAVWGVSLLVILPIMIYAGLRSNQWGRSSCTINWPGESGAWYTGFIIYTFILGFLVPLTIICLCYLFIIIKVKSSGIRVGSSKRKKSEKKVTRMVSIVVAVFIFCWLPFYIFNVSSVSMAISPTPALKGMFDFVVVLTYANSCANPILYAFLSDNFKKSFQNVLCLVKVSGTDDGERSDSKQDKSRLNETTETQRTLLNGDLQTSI
Sequence of SSTR5 (P35346 whole entry): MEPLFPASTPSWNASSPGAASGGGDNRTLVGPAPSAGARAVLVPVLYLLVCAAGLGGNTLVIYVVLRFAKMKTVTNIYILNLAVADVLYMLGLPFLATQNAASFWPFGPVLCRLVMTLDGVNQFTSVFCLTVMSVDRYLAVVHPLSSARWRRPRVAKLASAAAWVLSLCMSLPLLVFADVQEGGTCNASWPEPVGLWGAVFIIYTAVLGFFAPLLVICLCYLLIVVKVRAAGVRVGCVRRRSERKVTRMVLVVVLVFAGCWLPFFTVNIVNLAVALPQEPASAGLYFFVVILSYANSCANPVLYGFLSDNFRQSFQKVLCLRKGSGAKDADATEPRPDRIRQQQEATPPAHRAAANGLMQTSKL

**Q.** Which “XRPD pattern after one-week slurry” value ([1]; MIBK:heptane (1:2 vol) at 10° C.) does the source give for `C[C@H](NC(=O)c1cnc(C#N)c(-c2cc(F)cc(F)c2)c1N1CC[C@H](N)C1)C(F)(F)F` [Pattern A, 4-[(3S)-3-aminopyrrolidin-1-yl]-6-cyano-5-(3,5-difluorophenyl)-N-[(2S)-1,1,1-trifluoropropan-2-yl]pyridine-3-carboxamide] here?
**A.** The value was “Pattern B”.

**Q.** And the “XRPD pattern after one-week slurry” value ([1]; MIBK:heptane (1:2 vol) at room temperature)?
**A.** Its value is “Pattern A+trace of a new pattern, Pattern D”.

**Q.** What about the “XRPD pattern after one-week slurry” value ([1]; remaining six analysable samples: IPA:water (1:1), THF:heptane (1:2), IPAc, room temperature and 10° C.) of the same compound?
**A.** The value was “Pattern A”.

**Q.** What about the “total mass change between 2 and 95% RH” value ([2]; DVS, 2 to 95% RH) of the same compound?
**A.** Its value is 0.7%.

**Q.** What about the “mass gain from 20 to 75% RH” value ([2]; DVS, 20 to 75% RH) of the same compound?
**A.** The value was 0.37%.

**Q.** And the “mass loss from 50 to 2% RH” value ([2]; DVS, 50 to 2% RH)?
**A.** Its value is 0.2%.

**Q.** What about the “XRPD pattern after DVS analysis” value ([2]; sample measured by DVS, 2-95% RH) of the same compound?
**A.** Its value is “unchanged after DVS analysis”.

**Q.** What about the “XRPD after DSC thermal cycling” value ([3]; heated from 30° C. to 118° C. and cooled back to 30° C.) of the same compound?
**A.** Its value is “stable after the DSC treatment”.

**Q.** And the “XRPD after DSC thermal cycling” value ([3]; heated from 30° C. to 150° C. and cooled back to 30° C.)?
**A.** Its value is “amorphous pattern”.

**Q.** What about the “crystallinity (XRPD) after dry milling” value ([4]; dry milling, 3,800 rpm, three steps of 30 s) of the same compound?
**A.** The value was “lost after dry milling resulting in amorphous material”.

**Q.** And the “crystallinity (XRPD) after solvent milling” value ([4]; solvent drop milling in IPAc, water, and MIBK)?
**A.** Its value is “remained stable”.

**Q.** What about the “XRPD after static storage” value [5] of the same compound?
**A.** Its value is “no change in the XRPD”.

**Q.** Which “selectivity for SSTR5 over SSTR2” value (SSTR2) does the source give for `C[C@H](NC(=O)c1cnc(C#N)c(-c2cc(F)cc(F)c2)c1N1CC[C@H](N)C1)C(F)(F)F` [Compound 1, 4-[(3S)-3-aminopyrrolidin-1-yl]-6-cyano-5-(3,5-difluorophenyl)-N-[(2S)-1,1,1-trifluoropropan-2-yl]pyridine-3-carboxamide] here?
**A.** The value was over 500 fold.

**Q.** And the EC50 (SSTR5)?
**A.** Its EC50 is under 1 nM.

**Q.** Which results are given for `C[C@H](NC(=O)c1cnc(C#N)c(-c2cc(F)cc(F)c2)c1N1CC[C@H](N)C1)C(F)(F)F` [Pattern D, 4-[(3S)-3-aminopyrrolidin-1-yl]-6-cyano-5-(3,5-difluorophenyl)-N-[(2S)-1,1,1-trifluoropropan-2-yl]pyridine-3-carboxamide]?
**A.** XRPD after drying under active vacuum at room temperature ([6]; overnight, active vacuum, room temperature): converted to C; XRPD after drying on the benchtop ([6]; room temperature): remained stable

**Q.** Which results are given for `C[C@H](NC(=O)c1cnc(C#N)c(-c2cc(F)cc(F)c2)c1N1CC[C@H](N)C1)C(F)(F)F` [Pattern B, 4-[(3S)-3-aminopyrrolidin-1-yl]-6-cyano-5-(3,5-difluorophenyl)-N-[(2S)-1,1,1-trifluoropropan-2-yl]pyridine-3-carboxamide]?
**A.** XRPD after drying on the benchtop ([6]; room temperature): stable; XRPD after drying under vacuum at 50° C. ([6]; vacuum, 50° C.): changed to C; also recorded: converted to Pattern C
